Literature values as cited in patent US20130217055A1, “METHOD FOR PREDICTING TYROSINE KINASE INHIBITOR (TKI) RESISTANCE IN PATIENTS SUFFERING FROM CHRONIC MYELOGENOUS LEUKEMIA (CML)” (PamGene B.V., priority 2010, published 2013).

System: CML patients

## Cc1ccc(NC(=O)c2ccc(CN3CCN(C)CC3)cc2)cc1Nc1nccc(-c2cccnc2)n1 [Imatinib]
Patients treated in chronic phase CML
  complete or nearly complete cytogenetic remission: up to 80% of patients
Primary or secondary resistance
  CML patients treated that are or become resistant to the treatment: about 20%
